Measured values from article PMC4204886 (Biochemistry, 2014).

What was measured:
B. subtilis PBP4a = B. subtilis PBP4a (Bacillus subtilis, UniProt P39844); test: PBP4a inhibition in solution; assay type: biochemical
E. coli PBP1a/1b = test: Membrane-bound PBP inhibition, Bocillin Fl competition gel; assay type: binding; details: gel experiments, E. coli membranes, 1 h preincubation, Bocillin Fl 20 μM
[1] = biological target: Streptomyces R61 DD-peptidase (Streptomyces sp., UniProt P15555); test: R61 DD-peptidase inhibition in solution; assay type: biochemical
E. coli PBP4 = E. coli PBP4 (Escherichia coli, UniProt P24228); test: Membrane-bound PBP inhibition, Bocillin Fl competition gel; assay type: binding; details: gel experiments, E. coli membranes, 1 h preincubation, Bocillin Fl 20 μM
TEM-1 β-lactamase = TEM-1 β-lactamase (Escherichia coli, UniProt P62593, Q37K); test: TEM-1 β-lactamase inhibition; assay type: biochemical; details: even at 1 mM concentrations
E. coli PBP3 = E. coli PBP3 (Escherichia coli, UniProt P0AD68); test: Membrane-bound PBP inhibition, Bocillin Fl competition gel; assay type: binding; details: gel experiments, E. coli membranes, 1 h preincubation, Bocillin Fl 20 μM
[2] = biological target: Actinomadura R39 DD-peptidase (Actinomadura sp., UniProt P39045); test: R39 DD-peptidase inhibition in solution; assay type: biochemical
class C P99 β-lactamase [3] = biological target: T1, class C P99 β-lactamase (Enterobacter cloacae, UniProt P05364); test: P99 β-lactamase inhibition, steady-state competition with cephalothin; assay type: biochemical
E. coli PBP2 = E. coli PBP2 (Escherichia coli, UniProt P0AD65); test: Membrane-bound PBP inhibition, Bocillin Fl competition gel; assay type: binding; details: gel experiments, E. coli membranes, 1 h preincubation, Bocillin Fl 20 μM
E. coli PBP5 = E. coli PBP5 (Escherichia coli, UniProt P0AEB2); test: as above; assay type: binding; details: gel experiments, E. coli membranes, 1 h preincubation, Bocillin Fl 20 μM
[4] = biological target: class A Staphylococcus aureus PC1 β-lactamase (Staphylococcus aureus, UniProt P00807); test: PC1 β-lactamase inhibition; assay type: biochemical
[5] = biological target: class A SHV-1 β-lactamase (Klebsiella pneumoniae, UniProt P0AD64); test: SHV-1 β-lactamase inhibition; assay type: biochemical; details: even at 1 mM concentrations
[6] = biological target: class A TEM-2 β-lactamase (Escherichia coli, UniProt P62593, Q37K); assay type: biochemical, E. coli W3310
AmpC β-lactamase = AmpC β-lactamase (Escherichia coli, UniProt P00811); test: AmpC β-lactamase inhibition, steady-state competition with cephalothin; assay type: biochemical
class C P99 β-lactamase [7] = biological target: T1, class C P99 β-lactamase; details: read-out: Km of the substrate; P99 enzyme; 20 mM MOPS pH 7.50, 25 °C; cited from earlier work
[8] = test system: Pseudomonas class C β-lactamase; details: cited from earlier work
class A BCI β-lactamase = details: cited from earlier work
[9] = test system: CC(=O)OCC1=C(C(=O)O)N2C(=O)[C@@H](NC(=O)Cc3cccs3)[C@H]2SC1; test: AmpC β-lactamase inhibition, steady-state competition with cephalothin; assay type: biochemical; details: pH 7.5; 25.0 °C

CC1(C)SC(C(NC(=O)Cc2ccccc2)B(O)O)NC1C(=O)O (centres unmarked) [compound 12, 2-[1-(dihydroxyboranyl)(2-phenylacetamido)methyl]-5,5-dimethyl-1,3-thiazolidine-4-carboxylic acid]
inhibition of B. subtilis PBP4a (B. subtilis PBP4a): no inhibition | inhibition of E. coli PBP1a/1b (E. coli PBP1a/1b): did not inhibit | inhibition of Streptomyces R61 DD-peptidase [1]: no inhibition | inhibition of E. coli PBP4 (E. coli PBP4): did not inhibit | inhibition of TEM-1 β-lactamase (TEM-1 β-lactamase): Neither the TEM-1, SHV-1, nor PCI β-lactamases were inhibited | inhibition of E. coli PBP3 (E. coli PBP3): did not inhibit | Ki ([2]; R39 DD-peptidase, NI = no inhibition at 0.10 mM): NI ^c | inhibition of Actinomadura R39 DD-peptidase ([2]; in solution): no inhibition | Ki (class C P99 β-lactamase [3]): 0.95 ± 0.11 µM | inhibition of E. coli PBP2 (E. coli PBP2): did not inhibit | inhibition of E. coli PBP5 (E. coli PBP5): did not inhibit | Ki ([4]; PCI β-lactamase, NI = no inhibition at 1.0 mM): NI ^b | inhibition of PCI β-lactamase ([4]; even at 1 mM concentrations): Neither the TEM-1, SHV-1, nor PCI β-lactamases were inhibited | inhibition of SHV-1 β-lactamase [5]: Neither the TEM-1, SHV-1, nor PCI β-lactamases were inhibited | Ki ([6]; TEM-2 β-lactamase, NI = no inhibition at 1.0 mM): NI ^b | inhibition of TEM-2 enzyme over time ([6]; in 24 h): no inhibition | Ki (AmpC β-lactamase): 1.3 ± 0.4 µM

CC(=O)OCC1=C(C(=O)O)N2C(=O)[C@@H](NC(=O)Cc3cccs3)[C@H]2SC1 [cephalothin]
Km (class C P99 β-lactamase [7]): 9 µM

Methyl penicilloate [compound 28, reference compound]
substrate activity (class C P99 β-lactamase [3]; P99 β-lactamase, see Supporting Information): substrate | substrate activity [8]: substrate | substrate / covalent inhibitor activity [6]: neither a substrate nor a covalent inhibitor | substrate / covalent inhibitor activity (class A BCI β-lactamase): neither a substrate nor a covalent inhibitor

AmpC β-lactamase (Escherichia coli K-12)
Km [9]: 13.8 µM
